From ChEMBL document CHEMBL1201862, “PubChem BioAssay data set” (2004)
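In this assay, cells in 96-well plates receive the compound at five concentrations for 48 hours. Endpoints are linearly interpolated between the surrounding concentrations. GI50: concentration for 50% inhibition of growth.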 The source made the active and inactive calls. No stated cut-off is given here; in the data, active = GI50 up to about 1.1 µM and inactive = higher.

Experiments:
Test in all cases: NCI tumour cell line growth inhibition, 48 h
A549 = system: A549
CAKI-1 = system: CAKI-1
COLO 205 = system: COLO 205
HCC 2998 = system: HCC 2998
HCT-15 = system: HCT-15
IGROV-1 = system: IGROV-1
K562 = system: K562
KM12 = system: KM12
LOX IMVI = system: LOX IMVI
MCF7 = system: MCF7
NCI-H226 = system: NCI-H226
NCI-H23 = system: NCI-H23
OVCAR-3 = system: OVCAR-3
OVCAR-4 = system: OVCAR-4
OVCAR-8 = system: OVCAR-8
SK-MEL-5 = system: SK-MEL-5
SNB-19 = system: SNB-19
SNB-75 = system: SNB-75
U-251 = system: U-251
UACC-62 = system: UACC-62

Row | Compound | GI50 (A549) | GI50 (CAKI-1) | GI50 (COLO 205) | GI50 (HCC 2998) | GI50 (HCT-15) | GI50 (IGROV-1) | GI50 (K562) | GI50 (KM12) | GI50 (LOX IMVI) | GI50 (MCF7) | GI50 (NCI-H226) | GI50 (NCI-H23) | GI50 (OVCAR-3) | GI50 (OVCAR-4) | GI50 (OVCAR-8) | GI50 (SK-MEL-5) | GI50 (SNB-19) | GI50 (SNB-75) | GI50 (U-251) | GI50 (UACC-62)
1 | CCCNC1=C(C)C(=O)C2=C(C1=O)[C@H](COC(N)=O)[C@]1(OC)[C@@H]3N[C@@H]3CN21 | 0.43 µM (active) | 4.57 µM (inactive) | 3.94 µM (inactive) | 3.79 µM (inactive) | 4.01 µM | 5.04 µM (inactive) | 12.1 µM (inactive) | 8.85 µM (inactive) | 1.6 µM (inactive) | 0.0422 µM (active) | 6.27 µM (inactive) | 0.861 µM (active) | 11.6 µM (inactive) | 6.93 µM (inactive) | 10 µM (inactive) | 0.65 µM (active) | 2.01 µM (inactive) | 1.67 µM (inactive) | 2.48 µM (inactive) | 0.472 µM (active)
2 | CC(=O)OCC1=C(C(=O)O)C(c2ccc3c(c2)OCO3)c2cc3c(cc2O1)OCO3 (configuration not stated) | > 100 µM (inactive) | > 100 µM (inactive) | > 100 µM (inactive) |  | > 100 µM | > 100 µM (inactive) | > 100 µM (inactive) |  | > 100 µM (inactive) |  |  | > 100 µM (inactive) | > 100 µM (inactive) | > 100 µM (inactive) | > 100 µM (inactive) | > 100 µM (inactive) | > 100 µM (inactive) | 53.8 µM (inactive) | > 100 µM (inactive) | > 100 µM (inactive)
3 | Cc1ccc(C(C)(C)C[P+](C)(c2ccccc2)c2ccccc2)cc1 | 11.6 µM (inactive) | 23.9 µM (inactive) | 4.42 µM (inactive) | 9.73 µM (inactive) | 99.3 µM | 5.28 µM (inactive) | 5 µM (inactive) | 4.71 µM (inactive) | 7.76 µM (inactive) | 7.93 µM (inactive) | 15.6 µM (inactive) | 11.7 µM (inactive) | 3.24 µM (inactive) | 9.18 µM (inactive) | 12.7 µM (inactive) | 3.42 µM (inactive) | 12 µM (inactive) | 8.18 µM (inactive) | 11.6 µM (inactive) | 5.38 µM (inactive)
4 | COc1nc2ccc(COc3ccc(C(=O)NC(CCC(=O)O)C(=O)O)cc3)cc2nc1OC (configuration not stated) | > 10 µM (inactive) | > 10 µM (inactive) | > 10 µM (inactive) | > 10 µM (inactive) | > 10 µM | > 10 µM (inactive) | > 10 µM (inactive) | > 10 µM (inactive) | > 10 µM (inactive) | > 10 µM (inactive) | > 10 µM (inactive) | > 10 µM (inactive) | > 10 µM (inactive) | > 10 µM (inactive) |  | > 10 µM (inactive) | > 10 µM (inactive) | > 10 µM (inactive) | > 10 µM (inactive) | > 10 µM (inactive)
5 | O=c1c(C(c2ccc(Cl)cc2)c2c(O)c3ccccc3n(-c3ccccc3)c2=O)c(O)c2ccccc2n1-c1ccccc1 | 15.2 µM (inactive) | 28.2 µM (inactive) | 30.8 µM (inactive) | 23.3 µM (inactive) | 15.2 µM | > 100 µM (inactive) | 40.5 µM (inactive) | 68.4 µM (inactive) | 18.8 µM (inactive) |  | 73.6 µM (inactive) | 11.1 µM (inactive) | 29 µM (inactive) | 32.1 µM (inactive) | 29.4 µM (inactive) | 28.7 µM (inactive) | 17.7 µM (inactive) |  | 16.9 µM (inactive) | 13.3 µM (inactive)
6 | Cc1ccc(C2C(C(=O)C(C)(C)C)N2S(=O)(=O)c2ccc(C)cc2)cc1 (configuration not stated) | 40.3 µM (inactive) | 26.4 µM (inactive) | 19.5 µM (inactive) | 19.1 µM (inactive) | 22.3 µM | 17.5 µM (inactive) | 25.3 µM (inactive) | 34.5 µM (inactive) | 22.4 µM (inactive) | 23.8 µM (inactive) | 21.3 µM (inactive) | 23.7 µM (inactive) | 26.5 µM (inactive) | 30.1 µM (inactive) | 21.3 µM (inactive) |  | 22.5 µM (inactive) | 19.5 µM (inactive) | 20.2 µM (inactive) | 15.8 µM (inactive)
7 | N#Cc1c(NC(=S)NC(=O)c2ccccc2)nc2c(c1-c1ccccc1)CCC2 | > 100 µM (inactive) | > 100 µM (inactive) | > 100 µM (inactive) |  | > 100 µM | > 100 µM (inactive) | > 100 µM (inactive) | > 100 µM (inactive) | > 100 µM (inactive) | > 10 µM (inactive) |  | > 100 µM (inactive) | > 100 µM (inactive) | > 100 µM (inactive) | 67 µM (inactive) | 73.3 µM (inactive) | > 100 µM (inactive) | 22.7 µM (inactive) | > 100 µM (inactive) | > 100 µM (inactive)
8 | Cc1cc(C)c2c(O)cc(-c3ccc(F)cc3)nc2n1 | 44.6 µM (inactive) | 33.6 µM (inactive) | 32.1 µM (inactive) | 31.3 µM (inactive) | 47.1 µM | 32.4 µM (inactive) | 32.1 µM (inactive) | 20.7 µM (inactive) | 45.6 µM (inactive) | 30.7 µM (inactive) | 35.6 µM (inactive) | 38.6 µM (inactive) |  | 17.6 µM (inactive) | 76.7 µM (inactive) |  | > 100 µM (inactive) | 27.2 µM (inactive) |  | 33.7 µM (inactive)
